This note sets out measurements from ChEMBL document CHEMBL4184249, “Structural development of tetrachlorophthalimides as liver X receptor β (LXRβ)-selective agonists with improved aqueous solubility” (Bioorg Med Chem Lett, 2018).

In experiment [1] the target is T1, Retinoic acid receptor RXR-alpha (Homo sapiens) (UniProt P19793).
T1 sequence (whole entry): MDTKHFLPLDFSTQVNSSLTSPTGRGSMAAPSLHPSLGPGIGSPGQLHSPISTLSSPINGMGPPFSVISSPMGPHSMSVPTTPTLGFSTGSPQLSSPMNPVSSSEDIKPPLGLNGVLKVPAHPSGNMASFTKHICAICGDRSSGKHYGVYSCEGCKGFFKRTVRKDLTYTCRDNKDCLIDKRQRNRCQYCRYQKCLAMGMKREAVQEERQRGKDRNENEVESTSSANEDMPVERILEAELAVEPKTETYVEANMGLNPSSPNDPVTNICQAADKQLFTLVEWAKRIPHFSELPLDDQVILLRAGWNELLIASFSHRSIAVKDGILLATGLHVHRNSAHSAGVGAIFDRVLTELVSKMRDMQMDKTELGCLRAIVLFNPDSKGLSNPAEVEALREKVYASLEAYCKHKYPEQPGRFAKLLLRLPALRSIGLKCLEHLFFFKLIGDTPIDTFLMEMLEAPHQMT
Description: Agonist activity at GAL4-tagged RXRalpha (unknown origin) expressed in HEK293 cells co-expressing CMX-beta-galactosidase at 0.3 to 30 uM incubated for 16 hrs by luciferase reporter gene assay. The class given is cell-based. (A reporter such as luciferase makes a cellular process visible.)

The target of experiment [2] is T2, Oxysterols receptor LXR-beta (Mus musculus) (UniProt Q60644).
T2 sequence (whole entry): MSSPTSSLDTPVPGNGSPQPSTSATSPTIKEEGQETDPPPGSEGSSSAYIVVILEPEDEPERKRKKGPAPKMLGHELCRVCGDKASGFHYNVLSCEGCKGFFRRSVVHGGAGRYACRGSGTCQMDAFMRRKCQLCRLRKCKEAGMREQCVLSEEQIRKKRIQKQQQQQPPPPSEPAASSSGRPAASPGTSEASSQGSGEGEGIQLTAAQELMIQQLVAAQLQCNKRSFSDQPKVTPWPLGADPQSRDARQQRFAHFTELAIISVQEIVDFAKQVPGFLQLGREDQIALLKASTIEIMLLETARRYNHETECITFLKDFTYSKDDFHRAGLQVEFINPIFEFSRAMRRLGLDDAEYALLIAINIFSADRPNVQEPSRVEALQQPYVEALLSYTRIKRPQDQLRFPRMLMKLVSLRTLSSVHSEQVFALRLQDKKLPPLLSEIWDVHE
Description: Agonist activity at mouse LXRbeta expressed in HEK293 cells co-expressing CMX-beta-galactosidase incubated for 16 hrs by luciferase reporter gene assay relative to T0901317. The class given is cell-based.

In experiment [3] the target is Oxysterols receptor LXR-beta (Homo sapiens, UniProt P55055). Kind of experiment: Agonist activity at LXRbeta ligand-binding domain (unknown origin) at 3 uM incubated for 1.5 hrs using fluorescein-labeled coactivator peptide by TR-FRET competitive binding assay relative to T0901317. On the technique in general: TR-FRET usually uses a lanthanide donor and a delayed reading to cut background.

The target of experiment [4] is T3, Oxysterols receptor LXR-alpha (Homo sapiens) (UniProt Q13133).
T3 sequence (whole entry): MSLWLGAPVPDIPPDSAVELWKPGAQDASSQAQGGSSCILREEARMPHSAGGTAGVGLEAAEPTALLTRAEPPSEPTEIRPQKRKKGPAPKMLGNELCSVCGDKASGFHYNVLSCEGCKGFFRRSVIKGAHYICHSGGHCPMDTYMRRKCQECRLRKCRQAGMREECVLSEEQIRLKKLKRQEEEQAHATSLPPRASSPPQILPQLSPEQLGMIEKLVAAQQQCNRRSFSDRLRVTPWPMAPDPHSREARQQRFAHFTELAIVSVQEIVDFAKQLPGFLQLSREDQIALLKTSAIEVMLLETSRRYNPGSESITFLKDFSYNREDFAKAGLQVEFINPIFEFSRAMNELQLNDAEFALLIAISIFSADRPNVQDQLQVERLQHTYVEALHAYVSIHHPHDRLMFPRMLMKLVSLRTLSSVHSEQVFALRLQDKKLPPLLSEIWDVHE
Description: Agonist activity at LXRalpha ligand-binding domain (unknown origin) at 0.3 uM incubated for 1.5 hrs using fluorescein-labeled coactivator peptide by TR-FRET competitive binding assay relative to T0901317.

Experiment [5] addresses T4, Bile acid receptor (Homo sapiens) (UniProt Q96RI1).
T4 sequence (whole entry): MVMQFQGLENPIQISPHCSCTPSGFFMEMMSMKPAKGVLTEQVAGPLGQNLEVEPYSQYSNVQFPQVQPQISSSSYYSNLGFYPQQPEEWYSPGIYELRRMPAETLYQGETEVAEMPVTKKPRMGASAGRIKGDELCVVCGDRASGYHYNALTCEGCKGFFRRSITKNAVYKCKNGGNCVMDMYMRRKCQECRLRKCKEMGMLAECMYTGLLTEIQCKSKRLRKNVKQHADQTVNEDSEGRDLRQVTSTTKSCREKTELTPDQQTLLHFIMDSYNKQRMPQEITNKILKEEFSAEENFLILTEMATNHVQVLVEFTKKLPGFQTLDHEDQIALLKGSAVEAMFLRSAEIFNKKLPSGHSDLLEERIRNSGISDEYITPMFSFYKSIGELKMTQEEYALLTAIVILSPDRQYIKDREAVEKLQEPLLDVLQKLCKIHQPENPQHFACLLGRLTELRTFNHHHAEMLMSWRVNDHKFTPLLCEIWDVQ
Kind of experiment: Agonist activity at GAL4-tagged FXR (unknown origin) expressed in HEK293 cells co-expressing CMX-beta-galactosidase at 0.3 to 30 uM incubated for 16 hrs by luciferase reporter gene assay. In kind it is cell-based.

Experiment [6] has as its target T5, Oxysterols receptor LXR-beta (Homo sapiens, UniProt P55055).
T5 sequence (P55055 whole entry): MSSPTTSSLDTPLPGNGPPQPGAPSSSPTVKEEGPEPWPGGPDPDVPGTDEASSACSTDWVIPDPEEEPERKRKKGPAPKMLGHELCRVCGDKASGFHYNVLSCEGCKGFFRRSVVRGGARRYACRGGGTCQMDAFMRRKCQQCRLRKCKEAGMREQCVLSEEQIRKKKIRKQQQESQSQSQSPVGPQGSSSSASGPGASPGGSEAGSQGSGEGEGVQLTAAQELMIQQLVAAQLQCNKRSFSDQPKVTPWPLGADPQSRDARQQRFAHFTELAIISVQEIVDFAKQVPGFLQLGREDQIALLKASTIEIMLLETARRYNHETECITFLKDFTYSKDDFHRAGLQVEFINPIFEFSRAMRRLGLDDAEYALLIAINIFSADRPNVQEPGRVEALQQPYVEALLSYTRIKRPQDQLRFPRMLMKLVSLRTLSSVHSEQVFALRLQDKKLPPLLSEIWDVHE
Description: Agonist activity at human LXRbeta expressed in HEK293 cells co-expressing CMX-beta-galactosidase incubated for 16 hrs by luciferase reporter gene assay. The class given is cell-based.

pEC50: −log10 of the molar value. Activity calls are given as the source filed them. The calls are words filed in the database; no cut-off is given here.

Consider `O=C1c2c(Cl)c(Cl)c(Cl)c(Cl)c2C(=O)N1c1ccccc1/C=C/c1cccs1`, for which, in experiment [1], the outcome was inactive. Moreover, the Efficacy stood at 24% in experiment [2], 14% in experiment [3], 6% in experiment [4] and 9% in experiment [5]. Moreover, the negative logarithm of the EC50 (pEC50) in experiment [6] is 6.25.

A word on the pEC50: it is the negative decadic logarithm of the EC50, by convention in mol/L. High values mean a small EC50, low ones a large EC50.
